{"source": "patent US4080467A", "about": "“Pharmaceutical compositions comprising 1,3-dithiolan-2-ylidene malonate derivatives” (Nihon Nohyaku Co., Ltd., priority 1976, dated 1978)", "key": {"[1]": {"system": "Acute Liver Damage associated with Centrilobular Necrosis (carbon tetrachloride)", "experiment": "Protective effect on acute liver damage associated with centrilobular necrosis (carbon tetrachloride model)", "assay_type": "in vivo, mice (four-week-old male, dd strain)", "settings": "250 mg/kg oral 6 h before CCl4, average of 5 to 6 mice"}, "[2]": {"system": "acute liver damage associated with periportal necrosis (allyl alcohol)", "experiment": "Protective effect on acute liver damage associated with periportal necrosis (allyl alcohol model), BSP test", "assay_type": "in vivo, male mouse (4 week-old dd-strain)", "settings": "100 mg/kg oral 6 h before allyl alcohol 0.075 ml/kg; 24 h after", "method": "The compound of this invention or anethol trithion was orally administered to the male mouse (4 week-old dd-strain) at the dose of 100 mg/kg. Six hours after it, allyl alcohol was orally administered at the dose of 0.075 ml/kg. Twenty four hours after it, the animals were sacrificed to collect blood samples. The residual quantity of BSP was measured by BSP test, from which the protective effect of the compound of this invention was evaluated."}, "[3]": {"system": "fatty liver (carbon tetrachloride)", "experiment": "Therapeutic effect on fatty liver (carbon tetrachloride model)", "assay_type": "in vivo, male rat (35 week-old, SD strain)", "settings": "for Degree of fatty liver (histopathological examination): 10 days, one symbol per animal", "method": "Carbon tetrachloride also induces fatty liver, but the picture of disease differs from the case of ethionine-induced fatty liver. Carbon tetrachloride is generally considered to damage microsome and thereby to inhibit protein synthesis and induce fatty liver.\nCarbon tetrachloride was subscutaneously administered to 35 week-old male rat (SD strain) for 4 days at the dose of 1 ml/kg. The treated animals were left for 3 days after the last administration to maximize the manifestation of fatty liver.\nAdministration of the compounds of this invention was commenced on the fourth day after the administration of carbon tetrachloride was completed. It was orally given everyday for 10 days at the dose of 50 or 250 mg/kg. On the 11th day, the animals were sacrificed. The therapeutic effect was evaluated by determining the content of lipid in the liver (triglyceride and total lipid) and examining the histopathological changes. Triglyceride and total lipid were determined colorimetrically by chromotropic acid method and Bragdon's oxidation method, respectively.\nIndices for the histopathological change is as follows."}, "[4]": {"system": "cirrhosis (carbon tetrachloride)", "experiment": "Therapeutic effect on cirrhosis (carbon tetrachloride)", "assay_type": "in vivo, male rat (4 week-old SD-strain)", "settings": "for Degree of cirrhosis (histopathological examination): 2000 ppm diet, one symbol per animal; for p-GOT activity / p-GPT activity: diet containing 2000 ppm", "method": "The therapeutic effect of the compound of this invention on cirrhosis, which had been caused by carbon tetrachloride administration, was examined.\nA 10% solution of carbon tetrachloride in olive oil was administered to the male rat (4 week-old SD-strain) intraperitoneally at the dose of 0.5 ml carbon tetrachloride/kg twice a week for a period of 10 weeks, to induce cirrhosis. Four days after the final administration of carbon tetrachloride, the formation of pseudo-lobulus was confirmed. Then the diseased animals were divided into two groups. Therapeutic group was submitted a diet containing 2000 ppm of Compound 4, while the positive control group was submitted a normal diet. Control group, to which olive oil alone had been administered, was submitted a normal diet.\nAt 1, 2, 4 and 8 weeks after beginning of Compound 4 feeding, 5 animals from each group were sacrificed, and the therapeutic effect on cirrhosis was evaluated by examining plasma transaminase activity (p-GPT and p-GOT, Reitman-Frankel method) and observing histopathological changes.\nDegree of cirrhosis in the histopathological examination was graded as follows: […]"}, "[5]": {"system": "bile flow and biliary salt", "experiment": "Cholagogic action: bile flow and excretion of biliary salt", "assay_type": "in vivo, male rat (4 week-aged, SD-JCL strain)", "settings": "200 mg/kg oral; for bile flow / excretion of biliary salt: before treatment = 100", "method": "The male rat (4 week-aged, SD-JCL strain) was anesthetized with sodium pentobarbital (37.5 mg/kg, intraperitoneal injection). The abdominal cavity was opened through a midline incision. The common bile duct was catheterized with polyethylene tube o.d. 0.8 mm. The catheter was brought to the outside through the abdominal incision wound prior to closing. Bile was collected from the catheter continuously with time intervals of one hour. The quantity of bile produced in one hour was determined by weighing and that of biliary salt was determined by enzymatic method (Ikagaku Jikkenho Koza 1B, Biological Constituents II, edited by Tamio YAMAKAWA). The amount of biliary salts was represented as cholic acid equivalent.\nIn the representation of the results, the quantities of bile and biliary salts produced in one hour prior to the administration of drug were taken as 100. The compound of this invention was orally administered at the dose of 200 mg/kg. As reference anethol trithion was used."}, "[6]": {"experiment": "Effect on concentration of ethyl alcohol in the blood", "assay_type": "in vivo, mice", "settings": "250 mg/kg oral 6 h before ethyl alcohol 1,000 mg/kg", "method": "The test compounds are dissolved or suspended in olive oil and administered orally at the dose of 250 mg/kg to the mice. After 6 hours, 1,000 mg/kg of ethyl alcohol was given orally. Blood was taken in a capillary from caudal vein at the time indicated in the results. The plasma was obtained by centrifugation. The concentration of ethyl alcohol in the plasma was measured by FID type gas liquid chromatography. Five mice were used for each group."}, "[7]": {"experiment": "Acute oral toxicity to male mice (LD50)", "settings": "mouse, in vivo"}, "[8]": {"settings": "50 mg/kg oral everyday for 10 days"}, "[9]": {"settings": "250 mg/kg oral everyday for 10 days"}}, "data": [{"smiles": "CC(C)OC(=O)C(C(=O)OC(C)C)=C1SCCS1", "note": "[Compound 4, Diisopropyl 1,3-dithiolan-2-yliden malonate]", "values": [{"measurement": "p-GPT (plasma glutamic-pyruvic transaminase activity)", "setting": "[1]; 24 h after CCl4, values over 1,000 regarded as 1,000", "result": 23, "unit": "Karmen units"}, {"measurement": "Liver Damage Index", "setting": "[1]; 0 normal, 2 slightly recognized, 4 clearly observable damage, 6 heavy damage", "result": 0.2}, {"measurement": "Index of hepatotoxicity: BSP (residual quantity of BSP)", "setting": "[2]", "result": "16±2.3"}, {"measurement": "Total lipid", "setting": "[3]; [8]", "result": "107.6 ± 12.3", "unit": "mg/g-liver"}, {"measurement": "Triglyceride", "setting": "[3]; [8]", "result": "42.3 ± 6.3", "unit": "mg/g-liver"}, {"measurement": "Degree of fatty liver (histopathological examination)", "setting": "[3]; 50 mg/kg oral", "result": "± ± and ± ± ± + ±"}, {"measurement": "Total lipid", "setting": "[3]; [9]", "result": "72.3 ± 9.6", "unit": "mg/g-liver"}, {"measurement": "Triglyceride", "setting": "[3]; [9]", "result": "23.6 ± 3.8", "unit": "mg/g-liver"}, {"measurement": "Degree of fatty liver (histopathological examination)", "setting": "[3]; 250 mg/kg oral", "result": "- - ± ± - ±"}, {"measurement": "Degree of cirrhosis (histopathological examination)", "setting": "[4]; 1 week", "result": "+ +++ + ++ +++"}, {"measurement": "Degree of cirrhosis (histopathological examination)", "setting": "[4]; 2 weeks", "result": "++ ±"}, {"measurement": "Degree of cirrhosis (histopathological examination)", "setting": "[4]; 8 weeks", "result": "+ ± and +++ ±"}, {"measurement": "p-GOT activity", "setting": "[4]; 1 week", "result": "277±135", "unit": "Karmen unit"}, {"measurement": "p-GPT activity", "setting": "[4]; 1 week", "result": "81.6±25.9", "unit": "Karmen unit"}, {"measurement": "p-GOT activity", "setting": "[4]; 2 weeks", "result": "96.8±2.6", "unit": "Karmen unit"}, {"measurement": "p-GPT activity", "setting": "[4]; 2 weeks", "result": "28.8±3.0", "unit": "Karmen unit"}, {"measurement": "p-GOT activity", "setting": "[4]; 4 weeks", "result": "64.0±5.5", "unit": "Karmen unit"}, {"measurement": "p-GPT activity", "setting": "[4]; 4 weeks", "result": "40.6±3.8", "unit": "Karmen unit"}, {"measurement": "p-GOT activity", "setting": "[4]; 8 weeks", "result": "91.8±7.2", "unit": "Karmen unit"}, {"measurement": "p-GPT activity", "setting": "[4]; 8 weeks", "result": "32.8±6.1", "unit": "Karmen unit"}, {"measurement": "bile flow", "setting": "[5]; 1 hour after treatment", "result": "110±4.2"}, {"measurement": "excretion of biliary salt", "setting": "[5]; 1 hour after treatment", "result": "105±13"}, {"measurement": "bile flow", "setting": "[5]; 2 hours after treatment", "result": "115±6.3"}, {"measurement": "excretion of biliary salt", "setting": "[5]; 2 hours after treatment", "result": "125±20"}, {"measurement": "bile flow", "setting": "[5]; 3 hours after treatment", "result": "110±7.2"}, {"measurement": "excretion of biliary salt", "setting": "[5]; 3 hours after treatment", "result": "132±26"}, {"measurement": "bile flow", "setting": "[5]; 4 hours after treatment", "result": "112±8.5"}, {"measurement": "excretion of biliary salt", "setting": "[5]; 4 hours after treatment", "result": "115±23"}, {"measurement": "bile flow", "setting": "[5]; 5 hours after treatment", "result": "92±4.7"}, {"measurement": "excretion of biliary salt", "setting": "[5]; 5 hours after treatment", "result": "81±7.2"}, {"measurement": "Amount of total biliary salts excreted for 5 hours relative to control", "setting": "[5]; versus control", "result": 1.61, "unit": "times"}, {"measurement": "Quantity of total excreted bile for 5 hours relative to control", "setting": "[5]; versus control", "result": 1.15, "unit": "times"}, {"measurement": "Concentration of Ethyl alcohol in Plasma", "setting": "[6]; 0 min", "result": "9±4", "unit": "ppm"}, {"measurement": "Concentration of Ethyl alcohol in Plasma", "setting": "[6]; 5 min", "result": "727±84", "unit": "ppm"}, {"measurement": "Concentration of Ethyl alcohol in Plasma", "setting": "[6]; 15 min", "result": "715±146", "unit": "ppm"}, {"measurement": "Concentration of Ethyl alcohol in Plasma", "setting": "[6]; 30 min", "result": "430±105", "unit": "ppm"}, {"measurement": "Concentration of Ethyl alcohol in Plasma", "setting": "[6]; 60 min", "result": "13±11", "unit": "ppm"}, {"measurement": "LD50", "setting": "[7]", "result": 1350, "unit": "mg/kg"}]}]}
